Assay results: patent US20240156790A1, “COMPOUNDS, COMPOSITIONS, AND METHODS FOR MODULATING FERROPTOSIS AND TREATING EXCITOTOXIC DISORDERS” (THE TRUSTEES OF COLUMBIA UNIVERSITY IN THE CITY OF NEW YORK, priority 2018, published 2024)
“Also recorded” adds a separate entry of the source. Where two headings read alike, the source gives them in different places. Values belong to the molecule of their own block, whether it stands above or below them.

Tests used:
HT-1080 cells [1] = assay: Rescue activity of Fer-1 analogs: inhibition of erastin-, IKE- or RSL3-induced death (Alamar Blue viability); type: cell-based; settings: Homo sapiens
Procedure: HT-1080 cells are cultured in DMEM containing 10% fetal bovine serum, 1% supplemented non-essential amino acids and 1% pen/strep mixture (Gibco) and maintained in a humidified environment at 37° C. with 5% CO2 in a tissue culture incubator. 1,000 HT-1080 cells are seeded per well in duplicate 384-well plates (Corning) using a BioMek FX liquid handling robot (Beckman Coulter). The next day, the medium is replaced with 36 μL of medium containing 10 μM erastin with 4 μL of medium containing a dilution series (previously prepared) of DMSO, Fer-1 (positive control) or Fer-1 analogs. […] Cells are incubated a further 6 hours and then the Alamar Blue fluorescence intensity recorded using a Victor 3 platereader (PerkinElmer)(ex/em 530/590). All experiments are performed at least twice and the background (no cells)-subtracted Alamar Blue values for each combination are averaged between replicates. The same procedure was repeated by replacing erastin (10 μM) with IKE (3 μM) or RSL3 (0.2 μM).

[2] = Microsomal stability, mouse liver microsomes (Table 1); type: in vitro ADME, Mouse: CD1; settings: for half-life: liver microsomes; for average % remaining after 120 minutes: compounds with t1/2 > 120 min, in parentheses
Procedure: Each compound (1 μM) is incubated with mouse plasma, for 4 hours at 37° C., with shaking at 100 rpm. The concentration of compound in the buffer and plasma chambers is determined using LC-MS/MS. Metabolism of each compound is predicted using Sites of Metabolism (Schrodinger Suite), which combines intrinsic reactivity analysis (Hammett-Taft) with induced fit docking against 2C9, 2D6 and 3A4. This approach identifies 90% of known metabolism sites and has a false positive rate of 17%. The in vitro metabolic stability of each compound in mouse liver microsomes is determined. Pooled mouse liver microsomes are prepared and stored at −80° C. until needed. […]

[3] = Microsomal Stability Assay (Examples 6 and 8); type: in vitro ADME, mouse; settings: for microsomal stability / half-life, in words: assessed over two hours
Procedure: (§1) To a 96-well polypropylene plate was added phosphate buffer (182.2 μL, pH 7.4, 100 mM) followed by addition of NADPH-regenerating system solution A (10 μL), and NADPH regenerating system solution B (2 μL) (Corning Gentest 3P NADPH regenerating system solution A (#451220) and B (#451200)). A stock solution of analog (0.8 μL. 5 mM) or fer-1 (positive control) was added and the mixture was warmed to 37° C. for 5 min. Mouse microsomes (CD-1, 20 mg/mL, Life Technologies) (5 μL, thawed in 37° C. water bath before use) were added. The resulting reaction mixture was kept at 37° C. with gentle agitation for the duration of the experiment. At selected time points (0, 1, 5, 10, 20, 30, 60 and 120 min) aliquots (15 μL) were withdrawn from the plate and quenched upon addition to cold methanol (60 μL), containing an internal standard (5 μM) in a separate 96-well polypropylene plate. At the completion of the final time-point, the samples were centrifuged at 4,000 rpm for 5 min at 4° C. The supernatant (40 μL) was withdrawn and transferred to a sample vial with insert. The samples were analyzed by LC-MS. LC-MS analysis was performed on a platform comprising a Thermo Scientific Dionex Ultimate 3000 and a Bruker amaZon SL equipped with an electrospray ionization source controlled by Bruker Hystar 3.2. Chromatographic separation was performed by injecting 5 μL of the sample onto an Agilent Eclipse Plus C18 column (2.1×50 mm, 3.5 μm) maintained at 20° C. The flow rate was maintained at 400 μL/min. The initial flow conditions were 80% solvent A (water containing 0.1% acetic acid) and 20% solvent B (methanol containing 0.1% acetic acid). Solvent B was raised to 80% over 0.50 min by 1.50 min. Solvent B was raised to 100% by 5.00 min and held there for 3.25 min. […] All analogs were detected in positive mode as [M+H]*. The percent of compound remaining at each time-point was calculated as the ratio of the integrated compound peak over the internal standard peak and standardized to the t=0 time-point. Values were plotted in GraphPad Prism 9 and fit with a one phase decay.
as §1, with “and NADPH-regenerating” for “and NADPH regenerating”, “rpm (1872 g)” for “rpm”, “[M+H]*. […]” for “[M+H]*. The percent of compound remaining at each time-point was calculated as the ratio of the integrated compound peak over the internal standard peak and standardized to the t=0 time-point. Values were plotted in GraphPad Prism 9 and fit with a one phase decay.”

HT-1080 cells [4] = assay: Cell viability assays in HT-1080 cells, ferroptosis induced by IKE or RSL3 (Example 8); type: cell-based
Procedure: Cell culture assays were incubated at 37° C. with 5% CO2. HT-1080 cells were grown in DMEM (Corning) supplemented with 10% FBS (Life Technologies), 1% Penicillin-Streptomycin 10,000 U/mL (Gibco), and 1% MEM Non-Essential Amino Acids Solution 100× (Gibco). For cell viability assays, cells were trypsinized, counted, and seeded into 384-well white polypropylene plates at 1,000 cells/well, unless otherwise specified. After allowing cells to adhere overnight, compounds in DMSO stocks were arrayed in a 16-point dilution series prepared in a mother plate, and treated from a daughter plate, [DMSO]=0.28%. After 24 or 48 h, 50% CellTiter-Glo (Promega) 50% cell culture medium was added to each well and incubated at room temperature with shaking for 15 min. Luminescence was measured using a Victor X5 plate reader (PerkinElmer). All cell viability data were normalized to the DMSO vehicle condition. […] All 384w measurements were performed in triplicate
We first evaluated the efficacy of four pyridine analogs, TH-2-9-1, TH-2-31, TH-2-37-1, and TH-2-37-2, in suppressing ferroptosis induced by IKE and RSL3 in HT-1080 cells. […] We sought to determine whether incorporation of pyridine changed stability in mouse liver microsomes.

HT-1080 cells [5] = assay: Rescue activity of selected Fer-1 analogs, dose-response in HT-1080 cells (cell titer glo); type: cell-based; settings: for potency compared, in words: 0.2 μM RSL3, 10 μM erastin; for toxicity (overall drop in viability): at 10 μM compound; for IC50: Homo sapiens, HT-1080, range 10 μM-0 μM, 48 hours
Procedure: Selected Fer-1 analogs containing a pyridine moiety (FIG. 4) were tested to examine their efficacy and overall potency in inhibiting ferroptosis. For each of these compounds, dose-response curves were generated in HT-1080 cells looking at the effectiveness of the molecules in inhibiting ferroptosis induced by either 3 μM IKE or 0.2 μM RSL3, Fer-1 was used as a positive control. For each dose-response curve, 1,000 cells/well were seeded in a 384 well plate and allowed to adhere overnight prior to treating with compound from a daughter plate. Cells were treated for 48 hours, unless otherwise noted, prior to viability being analyzed using cell titer glo (40 μL per well). All liquid handling was performed using the BioMek. All samples were prepared in triplicate, unless otherwise noted.

[6] = HT-1080, no footnote marker printed, inducer not stated
[7] = CD1, mouse, Mouse: CD1, read-out: Microsomal Stability t1/2
[8] = HT-1080, ^a 50% viability, HT-1080 cells treated with 10 μM erastin
[9] = HT-1080, ^b 50% viability, HT-1080 treated with 3 μM IKE
[10] = HT-1080, ^c 50% viability, HT-1080 treated with 0.2 μM RSL3

SMILES: CC(C)(C)OC(=O)c1ccc(NC2CCCCC2)c(NC23CC4CC(CC(C4)C2)C3)c1 [CFI-L034]
- EC50 (HT-1080 cells [1]; [6]): 166 nM
- half-life ([2]; CD1 (mouse), mouse, human, in either mouse or human liver microsomes, read-out: T1/2): > 120 min
- half-life [2, 7]: > 120 min
- average % remaining after 120 minutes ([2]; Mouse: CD1): min (60.2%) Human: TBD Rat: TBD Dog: Pig: TBD

SMILES: C=C/C=C(/CN/C(=C/C(=C\C)C(=O)OCC)CNC(CC)CCC)C(=C)O (stereo not drawn) [CFI-M82]
- Microsomal Stability t1/2 ([2]; Mouse: CD1): Mouse: 10 min

SMILES: CCCCCCNc1cc(C(=O)OC(C)(C)C)c(C)cc1NC12CC3CC(CC(C3)C1)C2 [CFI-A9]
- EC50 (HT-1080 cells [1]; [8]): 65 nM
- Microsomal Stability t1/2 ([2]; Mouse: CD1): Mouse: >120 min
- average % remaining after 120 minutes ([2]; Mouse: CD1): min (83.6%) Human: TBD Rat: TBD Dog Pig: TBD

SMILES: Cc1noc(-c2cnc(NC3CCCCC3)c(N)c2)n1 [TH-2-30]
- EC50 (HT-1080 cells [1]; [9]): 461 nM
- EC50 (HT-1080 cells [1]; [10]): 118 nM
- potency compared, in words (HT-1080 cells [5]; 3 μM IKE): relatively less potent; also recorded: potency comparable to Fer-1 against IKE and RSL3
- toxicity (overall drop in viability) (HT-1080 cells [5]): appeared to be toxic

SMILES: CC(C)(C)OC(=O)c1cc(NC2CCCCC2)c(NC23CC4CC(CC(C4)C2)C3)cc1F [AZIII8, tert-butyl 4-(((3s,5s,7s)-adamantan-1-yl)amino)-5-(cyclohexylamino)-2-fluorobenzoate]
- microsomal stability / half-life, in words [3]: half-lives greater than two hours
- potency relative to fer-1 at suppressing ferroptosis, in words (HT-1080 cells [4]): more potent than fer-1

SMILES: COc1cnc(NC2CCCCC2)c(N)c1 [TH-2-5, N^2-cyclohexyl-5-methoxypyridine-2,3-diamine]
- EC50 (HT-1080 cells [1]; [6]): > 350 nM
- death observed with RSL3 (HT-1080 cells [5]; 0.2 μM RSL3, inhibitor range 10 μM-0 μM): No death was observed

SMILES: CCCCCCNc1cc(C(=O)OC(C)(C)C)c(F)cc1NC12CC3CC(CC(C3)C1)C2 [CFI-A8]
- EC50 (HT-1080 cells [1]; [9]): 20 nM
- EC50 (HT-1080 cells [1]; [10]): 19 nM
- Microsomal Stability t1/2 ([2]; Mouse: CD1): Mouse: >120 min
- average % remaining after 120 minutes ([2]; Mouse: CD1): min (76.4%) Human: TBD Rat: TBD Dog: Pig: TBD

SMILES: Cc1noc(-c2cnc(NC3CCCCC3)c(NC3CCCCC3)c2)n1 [CFI-102]
- EC50 (HT-1080 cells [1]; [9]): 0.9 nM
- EC50 (HT-1080 cells [1]; [10]): 0.9 nM
- half-life [2, 7]: 30 to 60 min
- potency compared, in words (HT-1080 cells [5]; 3 μM IKE): the most potent analog for both IKE an RSL3
- IC50 (HT-1080 cells [5]; 0.2 μM RSL3, read-out: IC50 against RSL3): 10 to 20 nM
- IC50 (HT-1080 cells [5]; 3 μM IKE, read-out: IC50 against IKE): 10 to 20 nM
- toxicity (overall drop in viability) (HT-1080 cells [5]): appeared to be toxic
- concentration achieving full rescue (HT-1080 cells [5]; starting concentration 5 μM, treated 51 hours, IKE and RSL3): around 0.0001 μM

Now from value to molecule, other results behind:

- microsomal stability / half-life, in words [3]: half-lives greater than two hours
SMILES: Cc1noc(-c2ccc(NC34CC5CC(CC(C5)C3)C4)c(NC3CCCCC3)c2)n1 [PHB4083, N1-((3s,5s,7s)-adamantan-1-yl)-N2-cyclohexyl-4-(3-methyl-1,2,4-oxadiazol-5-yl)benzene-1,2-diamine]
- potency relative to fer-1 at suppressing ferroptosis, in words (HT-1080 cells [4]): more potent than fer-1

- half-life [2, 7]: 30.2 to 32.4 min
SMILES: Cc1noc(-c2ccc(NC34CC5CC(CC(C5)C3)C4)c(N)c2)n1 [CFI-4066]
- EC50 (HT-1080 cells [1]; [8]): 123 nM

- microsomal stability / half-life, in words [3]: half-lives greater than two hours
SMILES: CC(C)(C)OC(=O)c1ccc(NC23CC4CC(CC(C4)C2)C3)c(NC2CCCCC2)c1 [DL032, tert-butyl 4-(((3s,5s,7s)-adamantan-1-yl)amino)-3-(cyclohexylamino)benzoate]
- potency relative to fer-1 at suppressing ferroptosis, in words (HT-1080 cells [4]): more potent than fer-1

- microsomal stability / half-life, in words [3]: half-lives greater than two hours
SMILES: CC(C)(C)OC(=O)c1cc(NC2CCCCC2)c(NC23CC4CC(CC(C4)C2)C3)cc1Cl [AZII11, tert-butyl 4-(((3s,5s,7s)-adamantan-1-yl)amino)-2-chloro-5-(cyclohexylamino)benzoate]
- potency relative to fer-1 at suppressing ferroptosis, in words (HT-1080 cells [4]): less potent than fer-1

- half-life at 20 µM ([3]; CD-1, mouse, liver microsomes, pH 7.4, text, read-out: half-life in mouse liver microsomes): < 60 min
- microsomal stability / half-life, in words [3]: the least stable compound
SMILES: Nc1cc(-c2ncco2)ccc1NC1CCCCC1 [PHB4051, N1-cyclohexyl-4-(oxazol-2-yl)benzene-1,2-diamine]
- potency relative to fer-1 at suppressing ferroptosis, in words (HT-1080 cells [4]): more potent than fer-1
